Earlier results, collected in article PMC8823334 (ACS chemical neuroscience, 2021).

Columns and labels:
PAR4 [1] = molecular target: T1, PAR4 (Homo sapiens, UniProt Q96RI0)
T1 sequence (Q96RI0 18-385): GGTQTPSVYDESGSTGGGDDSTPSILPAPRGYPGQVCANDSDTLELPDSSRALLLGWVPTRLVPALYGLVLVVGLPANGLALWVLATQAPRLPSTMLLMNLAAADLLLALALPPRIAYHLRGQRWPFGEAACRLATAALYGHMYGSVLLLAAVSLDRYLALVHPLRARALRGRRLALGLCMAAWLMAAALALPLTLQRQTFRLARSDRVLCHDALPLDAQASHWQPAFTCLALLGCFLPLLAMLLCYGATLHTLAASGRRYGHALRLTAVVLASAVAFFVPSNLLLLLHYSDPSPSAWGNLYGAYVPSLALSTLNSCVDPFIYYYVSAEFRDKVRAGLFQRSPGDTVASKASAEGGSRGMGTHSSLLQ

PAR4 [2] = settings: mice, suppression of neuroinflammation in astrocytes

**Q.** With `COc1cc(OCc2nc(N3CCOCC3)sc2C)c2cc(-c3cn4nc(OC)sc4n3)oc2c1` [Compound 1] as the compound, how does the “mode of PAR4 inhibition” value (PAR4 [1]) read?
**A.** noncompetitive mode of inhibition

**Q.** And the “protection against traumatic brain injury” value (PAR4 [2])?
**A.** protected against traumatic brain injury (TBI) in mice
